Measured values published in patent US20250177405A1, “METHODS OF TREATING NEUROLOGICAL AND CARDIOVASCULAR CONDITIONS” (ASTROCYTE PHARMACEUTICALS, INC., priority 2021, published 2025).

How the values were obtained:
[1] = tested on: rodent model of cerebral ischemia; experiment: reproduction of Roucher study: ATP decline during cerebral ischemia; format: in vivo, rat; details: dose of 0.02 mg/kg, rats
Description: As part of the current study, we first reproduced the original Roucher results.
(§2) We therefore performed the same study using ^31P-ATP and measured the receptor engagement in the brain associated with the beneficial ATP effects.

A1R = molecular target: T1, A1R (Rattus norvegicus, UniProt P25099); experiment: estimated brain receptor occupancy of R-PIA at A1R; format: in vivo; details: associated with beneficial ATP effects
T1 construct: measured the receptor engagement in the brain associated with the beneficial ATP effects; from tissue; host or cells: brain of living rats (cerebral ischemia model)
T1 sequence (P25099 1-326): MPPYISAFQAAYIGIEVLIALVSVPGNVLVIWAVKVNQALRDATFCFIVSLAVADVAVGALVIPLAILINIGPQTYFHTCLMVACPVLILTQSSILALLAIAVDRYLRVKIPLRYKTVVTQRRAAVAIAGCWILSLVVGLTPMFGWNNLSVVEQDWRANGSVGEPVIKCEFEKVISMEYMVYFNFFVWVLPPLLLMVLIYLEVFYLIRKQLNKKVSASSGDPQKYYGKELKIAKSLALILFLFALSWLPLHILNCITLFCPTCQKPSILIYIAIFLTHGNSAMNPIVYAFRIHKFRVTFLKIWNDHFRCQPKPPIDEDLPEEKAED
Description: as §2

A3R [2] = molecular target: T2, A3R (Rattus norvegicus, UniProt P28647); experiment: estimated brain receptor occupancy of R-PIA at A3R; format: in vivo; details: associated with beneficial ATP effects
T2 sequence (P28647 1-320): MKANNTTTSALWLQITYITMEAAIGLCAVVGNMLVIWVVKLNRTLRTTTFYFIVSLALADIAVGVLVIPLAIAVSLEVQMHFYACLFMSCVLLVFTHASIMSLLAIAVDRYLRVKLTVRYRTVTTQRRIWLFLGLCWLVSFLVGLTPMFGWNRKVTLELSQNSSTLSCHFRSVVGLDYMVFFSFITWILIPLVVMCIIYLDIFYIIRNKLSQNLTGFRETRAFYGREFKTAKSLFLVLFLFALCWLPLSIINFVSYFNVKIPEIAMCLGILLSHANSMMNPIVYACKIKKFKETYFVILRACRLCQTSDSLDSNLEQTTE
Description: as §2

A3R [3] = molecular target: T2, A3R; details: cited from earlier work
[4] = tested on: reversible forebrain ischemia in the rat; details: cited from earlier work
[5] = tested on: traumatic brain injury (TBI) in mice; experiment: mouse traumatic brain injury (TBI) model; details: in vivo
Experimental: Animals and traumatic brain injury (TBI): TBI is performed with a controlled closed skull injury model as described in Talley-Watts et al. 2012 (J. Neurotrauma 30, 55-66). Following the method described therein, a pneumatic impact device is used to generate a moderate TBI leaving the skull and dura matter intact. To achieve this, C57BL/6 mice are anesthetized with isoflurane (3% induction, 1% maintenance) in 100% oxygen. A body temperature of 37° C. is maintained using a temperature-controlled heated surgical table. A small midline incision is made on the scalp using aseptic surgical techniques. A 5 mm stainless steel disc is positioned on the skull and fixed using superglue on the right parietal bone between bregma and lamda over the somatosensory cortex. The mouse is then positioned on a stage directly under the pneumatic impact tip. […] Mice are placed in a Thermo-Intensive Care Unit (Braintree Scientific model FV-1; 37° C.; 27% O2) and monitored until fully awake and moving freely. […]
Western Blot Analysis for GFAP: At selected survival times, mice are anesthetized under isoflurane and sacrificed. […] The homogenate is transferred to a 2 mL tube and centrifuged at 1000 g for 10 minutes at 4° C. and the supernatant is collected and analyzed. Protein concentration is determined by the BCA assay using a 1:50 dilution. […]

[6] = plasma protein binding (free fraction); format: in vitro ADME; details: mouse
Description: (§1) Example 3 of U.S. Pat. No. 9,789,131, which is incorporated herein by reference, describes assays for determining the plasma and brain free fraction of certain compounds such as I-1. Compounds described herein may be evaluated using such assays or similar variants thereof.

[7] = brain tissue binding (free fraction); format: in vitro ADME, mouse; details: mouse brain tissue
Description: as §1

Row | SMILES | decline in ATP during ischemia [1] | estimated RO % for A1R (A1R) [%] | estimated RO % for A3R (A3R [2]) [%] | Ki (A3R [3]) [nM] | intracellular pH ([4]; 30-min ischemia, reference group 6.30) | effect on cerebral metabolism before ischemia ([4]; before ischemia) | phosphocreatine, % of the control level ([4]; end of 30-min ischemia, reference group 27+/−9%) | ATP, % of the control level ([4]; end of 30-min ischemia, reference group 40+/−23%) | inorganic phosphate, % of the control level ([4]; end of 30-min ischemia, reference group 905+/−229%) | recovery of PCr, ATP, Pi, and pHi to control levels ([4]; recirculation, versus reference group) | efficacy in mouse TBI model [5] | free (unbound) fraction in plasma [6] | free (unbound) fraction in brain [7]
1 | C[C@H](Cc1ccccc1)Nc1ncnc2c1ncn2[C@@H]1O[C@H](CO)[C@@H](O)[C@H]1O [Compound I-25, N^6-(L-2-Phenylisopropyl)adenosine] | partial reversal | 16 | 1 | 158 | 6.40+/−0.10 | no effect | 43+/−11% | 58+/−12% | 672+/−210% | faster recovery |  |  | 
2 | CNC(=O)[C@H]1O[C@@H](n2cnc3c(NCc4cccc(I)c4)nc(Cl)nc32)[C@H](O)[C@@H]1O [Cl-IB-MECA, 2-Chloro-N^6-(3-iodobenzyl)-adenosine-5′-N-methyluronamide, reference compound] |  |  |  |  |  |  |  |  |  |  | weakly active | 0.002 | 0.002
